System in the first data set: not listed separately
Nature of the data set: Linker half-life determination by spectrophotometric proton release assay (spontaneous hydrolysis). The format is physicochemical. The following applies: buffer; 37 °C, pH 7.4; low molecular weight 90CE prodrugs with different N-2 substituents; read-out: Half-life (h) 37°C pH 7.4 (spontaneous hydrolysis) (converted). As for the experimental part:
Linker half-life determination. The hydrolytic half-lives of several proposed linker moieties were determined using the proton release assay. The results are given in (Figure 4), several possible linkers with suitably long half-live values (40–300 h) were identified.
Decomposition kinetics. The kinetics of decomposition of various compounds and intermediates under various conditions can be followed using a spectrophotometric proton release assay. This is the preferred method for relatively short-lived agents as the decomposition can be followed in real time. This method is also suitable for following the decomposition of much longer-lived agents, as long as the reaction vessel/cuvette is sealed to prevent changes in pH due to CO2 absorption/desorption, and the temperature is closely controlled.
As for `CC(=O)N(N(CCCl)S(C)(=O)=O)S(C)(=O)=O` [A], the half-life is 42.9 ± 2.1 h.

Consider `COC(=O)N(N(CCCl)S(C)(=O)=O)S(C)(=O)=O` [B], for which the half-life was greater than 300 h.

Consider `CNC(=O)N(N(CCCl)S(C)(=O)=O)S(C)(=O)=O` [C], for which the half-life is 1.17 ± 0.02 h.

As for `CN(C)C(=O)N(N(CCCl)S(C)(=O)=O)S(C)(=O)=O` [D], the half-life is 129 ± 9 h.

As for `CCN(CC)C(=O)N(N(CCCl)S(C)(=O)=O)S(C)(=O)=O` [E], the half-life is 10.3 ± 0.3 h.

Regarding `CS(=O)(=O)N(CCCl)N(C(=O)N1CCCC1)S(C)(=O)=O` [F], the half-life was greater than 300 h.

As to `CC1CCC(C)N1C(=O)N(N(CCCl)S(C)(=O)=O)S(C)(=O)=O` (stereo not shown) [G], the half-life is greater than 300 h.

In the case of `CS(=O)(=O)N(CCCl)N(C(=O)N1CCCCC1)S(C)(=O)=O` [H], the half-life is 16.2 ± 0.5 h.

As for `CS(=O)(=O)N(CCCl)N(C(=O)N1CCOCC1)S(C)(=O)=O` [I], the half-life is greater than 300 h.

Another data set has as its system matching cell lines.
Experiment: not given
The following applies: cited from earlier work.
In the case of `CS(=O)(=O)NN(CCCl)S(C)(=O)=O` [90CE, 1,2-bis(methylsulfonyl)-1-(2-chloroethyl)hydrazine], the “MGMT level up to which protection towards the agent is proportional to MGMT activity” value is given as ~ 10,000 MGMT molecules/cell.

Staying with this data set, now noted: same matching cell lines with/without MGMT expression; cited from earlier work.
In the case of `CS(=O)(=O)NN(CCCl)S(C)(=O)=O` [90CE, 1,2-bis(methylsulfonyl)-1-(2-chloroethyl)hydrazine], the “increase in the IC50 value resulting from MGMT expression” value is ~ 20 fold.

On to `O=NN(CCCl)C(=O)NCCCl` [bis-chloroethylnitrosourea (BCNU), bis-chloroethylnitrosourea], for which the “increase in the IC50 value resulting from MGMT expression” value is recorded as 2 to 3 fold.

In a further data set the test system is O-6 position of DNA guanine.
Experiment: not given
To be noted: relative to chloroethylating counterpart 90CE; cited from earlier work. Further details: method as in PMID 20654586.
As to `CN(NS(C)(=O)=O)S(C)(=O)=O` [KS90, 1,2-bis(methylsulfonyl)-1-(methyl)hydrazine], the “molar yield of guanine O-6 alkylations relative to 90CE” value is 5–6 times.

In general, half-life refers to how long it takes for the measured level to halve.

These data come from publication PMC7825511, “Design Strategy for the EPR Tumor-Targeting of 1,2-Bis(sulfonyl)-1-alkylhydrazines” (Molecules, 2021).
